Measured values published in patent publication US7691900B2, “Tocopherol derivatives with a long hydroxylated chain, which can be used as neurotrophics” (AxoGlia Therapeutics S.A., priority 2003, dated 2010).

Tested on: microglial cells activated by LPS
Experiment: Release of TNF-α (ELISA) in LPS-activated microglial cell cultures
Assay type: cell-based
Conditions: microglia treated with 0.01 μg/ml LPS; 24 h activation; tested at 10^-5, 10^-6, 10^-7 M
Experimental: 2. Measurement of the Release of TNF-α
The expression of the TNF-a represents a parameter for microglial activation often analyzed in the literature. […] A 24 hrs activation by LPS leads to a high increase in the level of TNF-α expression detectable by the ELISA test.
In the experiments, the concentrations of TNF-α in the microglial cell cultures, treated with 0.01 μg/ml of LPS in the presence of TFA-10, TFA-12, TFA-14, TFA-16 and vitamin E, at concentrations of 10^−5, 10^−6 and 10^−7 M, were measured by the inventors after 24 hours activation.

## vitamin E
  activity on TNF-α production, in words: no activity
